Source: patent US10385057B2, “Pyrazole compounds and methods of making and using same” (Lundbeck La Jolla Research Center, Inc., priority 2015, dated 2019)

What was measured:
[1] = target: T1, MAGL (Mus musculus, UniProt O35678); assay: In vitro competitive activity-based protein profiling, mouse MAGL; assay type: biochemical; settings: for inhibition at 1 µM: read-out: MAGL % inh. 1 μM (mouse)
T1 construct: mouse brain membrane fraction or cell lysates for mouse assays; from tissue
T1 sequence (O35678 1-303): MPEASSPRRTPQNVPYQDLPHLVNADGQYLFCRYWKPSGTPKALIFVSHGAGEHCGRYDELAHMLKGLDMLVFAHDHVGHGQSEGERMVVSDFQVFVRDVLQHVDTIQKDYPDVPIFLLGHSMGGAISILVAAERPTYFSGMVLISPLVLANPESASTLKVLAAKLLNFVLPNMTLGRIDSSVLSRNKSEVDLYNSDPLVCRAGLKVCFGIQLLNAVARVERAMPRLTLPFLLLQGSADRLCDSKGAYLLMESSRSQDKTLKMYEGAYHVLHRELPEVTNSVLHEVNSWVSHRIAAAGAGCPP
In short: (§1)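 Mouse brain membranes or cell lysates (mouse) and human prefrontal cortex or cell membrane fractions (human), 1.0 mg/mL protein, preincubated with inhibitor 30 min at 37 °C, then FP-Rh or HT-01 probe 30 min at 37 °C. SDS-PAGE; MAGL and FAAH activity from in-gel fluorescence band intensity.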

[2] = target: T2, FAAH (Mus musculus, UniProt O08914); assay: In vitro competitive activity-based protein profiling, mouse FAAH; assay type: biochemical; settings: for inhibition at 1 µM: read-out: FAAH % inh. 1 μM (mouse)
T2 construct: mouse brain membrane fraction or cell lysates for mouse assays; from tissue
T2 sequence (O08914 1-579): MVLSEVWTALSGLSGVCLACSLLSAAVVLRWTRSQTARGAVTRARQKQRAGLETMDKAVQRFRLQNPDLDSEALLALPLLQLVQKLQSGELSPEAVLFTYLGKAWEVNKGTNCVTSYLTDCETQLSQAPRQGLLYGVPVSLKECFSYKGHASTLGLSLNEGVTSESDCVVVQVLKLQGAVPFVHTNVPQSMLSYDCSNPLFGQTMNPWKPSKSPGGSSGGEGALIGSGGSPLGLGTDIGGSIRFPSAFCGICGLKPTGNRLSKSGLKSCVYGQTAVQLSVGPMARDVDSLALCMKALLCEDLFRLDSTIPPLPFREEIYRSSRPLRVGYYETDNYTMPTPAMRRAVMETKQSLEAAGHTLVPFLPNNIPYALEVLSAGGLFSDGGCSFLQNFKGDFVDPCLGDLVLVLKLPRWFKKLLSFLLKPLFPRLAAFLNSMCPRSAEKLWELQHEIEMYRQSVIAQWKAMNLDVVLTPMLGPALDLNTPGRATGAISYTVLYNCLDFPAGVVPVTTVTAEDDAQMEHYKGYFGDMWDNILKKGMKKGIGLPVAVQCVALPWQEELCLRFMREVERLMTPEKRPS
In short: as §1

[3] = target: T1, MAGL; assay: Mouse brain proteomes from inhibitor treated mice, MAGL; assay type: in vivo; settings: oral gavage, brain 4 h after administration, read-out: MAGL % inh. 5 mg/kg (mouse)
Description: Preparation of Mouse Brain Proteomes from Inhibitor Treated Mice.
Inhibitors were administered to wild-type C57Bl/6J by oral gavage in a vehicle of polyethylene glycol. Each animal was sacrificed 4 h following administration and brain proteomes were prepared and analyzed according to previously established methods (See Niphakis, M. J., et al. (2011) ACS Chem. Neurosci. and Long, J. Z., et al. Nat. Chem. Biol. 5:37-44).

Row | Compound | inhibition at 1 µM ([1]; 1 μM) | inhibition at 1 µM ([2]; 1 μM) | inhibition at 5 mg/kg [3] | IC50 [1] | IC50 [2] | MAGL % inh. 1 μM (mouse) ([1]; 1 μM) | FAAH % inh. 1 μM (mouse) ([2]; 1 μM)
1 | NC(=O)c1cnn(C(=O)N2CCC3(CCN(Cc4cc(Cl)ccc4Cl)C3)C2)c1 (stereo not shown) [Example 39, 1-(7-(2,5-dichlorobenzyl)-2,7-diazaspiro[4.4]nonane-2-carbonyl)-1H-pyrazole-4-carboxamide] | ≥ 75% | ≥ 75% | ≥ 75% | – | – | – | –
2 | NC(=O)c1cnn(C(=O)N2CCC3(CCN(Cc4cccc(C(F)(F)F)c4)C3)C2)c1 (stereo not shown) [Example 41, 1-(7-(3-(trifluoromethyl)benzyl)-2,7-diazaspiro[4.4]nonane-2-carbonyl)-1H-pyrazole-4-carboxamide] | ≥ 75% | ≥ 75% | ≥ 75% | 100 to 1000 nM | ≤ 100 nM | – | –
3 | NC(=O)c1cnn(C(=O)N2CCC3(CCN(Cc4cc(Cl)cc(C(F)(F)F)c4)C3)C2)c1 (stereo not shown) [Example 43, 1-(7-(3-chloro-5-(trifluoromethyl)benzyl)-2,7-diazaspiro[4.4]nonane-2-carbonyl)-1H-pyrazole-4-carboxamide] | ≥ 75% | ≥ 75% | ≥ 75% | ≤ 100 nM | ≤ 100 nM | – | –
4 | NC(=O)c1cnn(C(=O)N2CCC3(CCN(Cc4ccc(N5CCOCC5)cc4C(F)(F)F)C3)C2)c1 (stereo not shown) [Example 45, 1-(7-(4-morpholino-2-(trifluoromethyl)benzyl)-2,7-diazaspiro[4.4]nonane-2-carbonyl)-1H-pyrazole-4-carboxamide] | ≥ 75% | ≥ 75% | ≥ 75% | 100 to 1000 nM | ≤ 100 nM | – | –
5 | O=C(c1cnn(C(=O)N2CCC3(CCN(Cc4ccc(N5CCOCC5)cc4C(F)(F)F)C3)C2)c1)N1CCCC1 (stereo not shown) [Example 50, (1-(7-(4-morpholino-2-(trifluoromethyl)benzyl)-2,7-diazaspiro[4.4]nonane-2-carbonyl)-1H-pyrazol-4-yl)(pyrrolidin-1-yl)methanone] | ≥ 75% | ≥ 75% | 0 to 25% | 100 to 1000 nM | ≤ 100 nM | – | –
6 | CNC(=O)c1cnn(C(=O)N2C[C@H]3C[C@@H](N(C)Cc4ccc(C(F)(F)F)cc4)C[C@H]3C2)c1 [Example 54, N-methyl-1-(cis-5-(methyl(4-(trifluoromethyl)benzyl)amino)octahydrocyclopenta[c]pyrrole-2-carbonyl)-1H-pyrazole-4-carboxamide] | ≥ 75% | ≥ 75% | ≥ 75% | 100 to 1000 nM | ≤ 100 nM | – | –
7 | CN(Cc1ccc(C(F)(F)F)cc1)[C@@H]1C[C@@H]2CN(C(=O)n3cc(C(N)=O)cn3)C[C@@H]2C1 [Example 55, 1-(cis-5-(methyl(4-(trifluoromethyl)benzyl)amino)octahydrocyclopenta[c]pyrrole-2-carbonyl)-1H-pyrazole-4-carboxamide] | ≥ 75% | ≥ 75% | ≥ 75% | ≤ 100 nM | ≤ 100 nM | – | –
8 | CN(Cc1ccccc1Cl)[C@@H]1C[C@@H]2CN(C(=O)n3cc(C(N)=O)cn3)C[C@@H]2C1 [Example 88, 1-(cis-5-((2-chlorobenzyl)(methyl)amino)octahydrocyclopenta[c]pyrrole-2-carbonyl)-1H-pyrazole-4-carboxamide] | ≥ 75% | ≥ 75% | ≥ 75% | 100 to 1000 nM | ≤ 100 nM | – | –
9 | CN(Cc1ccccc1C(F)(F)F)[C@@H]1C[C@@H]2CN(C(=O)n3cc(C(N)=O)cn3)C[C@@H]2C1 [Example 90, 1-(cis-5-(methyl(2-(trifluoromethyl)benzyl)amino)octahydrocyclopenta[c]pyrrole-2-carbonyl)-1H-pyrazole-4-carboxamide] | ≥ 75% | ≥ 75% | ≥ 75% | – | – | – | –
10 | Cc1cc(-c2ccccc2)ccc1CN1CCC2(CCN(C(=O)n3cc(Cl)cn3)C2)C1 (stereo not shown) [Example 130, (4-chloro-1H-pyrazol-1-yl)(7-((3-methyl-[1,1′-biphenyl]-4-yl)methyl)-2,7-diazaspiro[4.4]nonan-2-yl)methanone] | ≥ 75% | ≥ 75% | ≥ 75% | ≤ 100 nM | ≤ 100 nM | – | –
11 | CN(Cc1ccc(-c2cccnn2)cc1C(F)(F)F)[C@H]1C[C@@H]2CN(C(=O)n3cc(C(N)=O)cn3)C[C@@H]2C1 [Example 225, 1-(trans-5-(methyl(4-(pyridazin-3-yl)-2-(trifluoromethyl)benzyl)amino)octahydrocyclopenta[c]pyrrole-2-carbonyl)-1H-pyrazole-4-carboxamide] | ≥ 75% | 50 to 75% | – | – | – | – | –
12 | CN(Cc1ccc(-c2cnccn2)cc1C(F)(F)F)[C@@H]1C[C@@H]2CN(C(=O)n3cc(C(N)=O)cn3)C[C@@H]2C1 [Example 226, 1-(cis-5-(methyl(4-(pyrazin-2-yl)-2-(trifluoromethyl)benzyl)amino)octahydrocyclopenta[c]pyrrole-2-carbonyl)-1H-pyrazole-4-carboxamide] | ≥ 75% | ≥ 75% | – | – | – | – | –
13 | CN(Cc1ccc(-c2nccs2)cc1C(F)(F)F)[C@@H]1C[C@@H]2CN(C(=O)n3cc(C(N)=O)cn3)C[C@@H]2C1 [Example 227, 1-(cis-5-(methyl(4-(thiazol-2-yl)-2-(trifluoromethyl)benzyl)amino)octahydrocyclopenta[c]pyrrole-2-carbonyl)-1H-pyrazole-4-carboxamide] | ≥ 75% | ≥ 75% | – | – | – | – | –

The next lines start with results.

Row | inhibition at 1 µM ([1]; 1 μM) | inhibition at 1 µM ([2]; 1 μM) | inhibition at 5 mg/kg [3] | IC50 [1] | IC50 [2] | Compound | MAGL % inh. 1 μM (mouse) ([1]; 1 μM) | FAAH % inh. 1 μM (mouse) ([2]; 1 μM)
14 | – | – | ≥ 75% | ≤ 100 nM | ≤ 100 nM | CN(Cc1ccccc1Cl)[C@@H]1C[C@@H]2CN(C(=O)n3cc(Cl)cn3)C[C@@H]2C1 [Example 59, (4-chloro-1H-pyrazol-1-yl)(trans-5-((2-chlorobenzyl)(methyl)amino)hexahydrocyclopenta[c]pyrrol-2(1H)-yl)methanone] | A (% inhibition greater than or equal to 75%) | A (% inhibition greater than or equal to 75%)
15 | ≥ 75% | ≥ 75% | ≥ 75% | 100 to 1000 nM | ≤ 100 nM | CN(Cc1ccccc1Cl)[C@H]1C[C@@H]2CN(C(=O)n3cc(C(N)=O)cn3)C[C@@H]2C1 [Example 96, 1-(trans-5-((2-chlorobenzyl)(methyl)amino)octahydrocyclopenta[c]pyrrole-2-carbonyl)-1H-pyrazole-4-carboxamide] | – | –
16 | ≥ 75% | ≥ 75% | 0 to 25% | 100 to 1000 nM | ≤ 100 nM | O=C(N1CCC2(CCN(Cc3ccccc3Cl)C2)C1)n1cc(Cl)cn1 (stereo not shown) [Example 112, (4-chloro-1H-pyrazol-1-yl)(7-(2-chlorobenzyl)-2,7-diazaspiro[4.4]nonan-2-yl)methanone] | – | –
17 | ≥ 75% | ≥ 75% | 25 to 50% | 100 to 1000 nM | ≤ 100 nM | O=C(N1CC2CN(Cc3ccccc3Cl)CC2C1)n1cc(Cl)cn1 (stereo not shown) [Example 116, (4-chloro-1H-pyrazol-1-yl)(5-(2-chlorobenzyl)hexahydropyrrolo[3,4-c]pyrrol-2(1H)-yl)methanone] | – | –
18 | ≥ 75% | ≥ 75% | ≥ 75% | 100 to 1000 nM | ≤ 100 nM | O=C(N1CC2CN(Cc3ccc(Cl)cc3)CC2C1)n1cc(Cl)cn1 (stereo not shown) [Example 118, (4-chloro-1H-pyrazol-1-yl)(5-(4-chlorobenzyl)hexahydropyrrolo[3,4-c]pyrrol-2(1H)-yl)methanone] | – | –
19 | ≥ 75% | ≥ 75% | ≥ 75% | ≤ 100 nM | ≤ 100 nM | O=C(N1CC2CN(Cc3ccc(Cl)c(Cl)c3)CC2C1)n1cc(Cl)cn1 (stereo not shown) [Example 119, (4-chloro-1H-pyrazol-1-yl)(5-(3,4-dichlorobenzyl)hexahydropyrrolo[3,4-c]pyrrol-2(1H)-yl)methanone] | – | –
